Test results as given in patent US12123010B2, “Plants having increased tolerance to herbicides” (BASF SE, priority 2017, dated 2024).
Values joined by “and” are separate entries in the source; they are usually repeats but may differ in a detail not shown here. Equal values may be shown once.

Legend:
[1] = test system: Transgenic T2 or T3 Soybean plants harbouring PPO inhibitor tolerance trait and Jake non transgenic; experiment: Soybean greenhouse post spray, injury score 7 DAT; details: in vivo
Description: Soybean cv Jake is transformed as previously described by Siminszky et al., Phytochem Rev. 5:445-458 (2006). After regeneration, transformants are transplanted to soil in small pots, placed in growth chambers (16 hr day/8 hr night; 25° C. day/23° C. night; 65% relative humidity; 130-150 microE m-2 s-1) and subsequently tested for the presence of the T-DNA via Taqman analysis. After a few weeks, healthy, transgenic positive, single copy events are transplanted to larger pots and allowed to grow in the growth chamber. An optimal shoot for cutting is about 3-4 inches tall, with at least two nodes present. Each cutting is taken from the original transformant (mother plant) and dipped into rooting hormone powder (indole-3-butyric acid, IBA). The cutting is then placed in oasis wedges inside a bio-dome. The mother plant is taken to maturity in the greenhouse and harvested for seed. Wild type cuttings are also taken simultaneously to serve as negative controls. The cuttings are kept in the bio-dome for 5-7 days and then transplanted to 3 inch pots and then acclimated in the growth chamber for two more days. Subsequently, the cuttings are transferred to the greenhouse, acclimated for approximately 4 days prior to spray. […] Herbicide injury evaluations are taken at 2, 7, 14 and 21 days after treatment. […]

[2] = target: Wild Type PPO Enzyme (Amaranthus PPO2, SEQ ID NO: 1) (Amaranthus tuberculatus, UniProt Q0NZW9); experiment: PPO enzyme assay (recombinant), wild type; assay type: biochemical
Wild Type PPO Enzyme (Amaranthus PPO2, SEQ ID NO: 1), sequence (Q0NZW9 1-534): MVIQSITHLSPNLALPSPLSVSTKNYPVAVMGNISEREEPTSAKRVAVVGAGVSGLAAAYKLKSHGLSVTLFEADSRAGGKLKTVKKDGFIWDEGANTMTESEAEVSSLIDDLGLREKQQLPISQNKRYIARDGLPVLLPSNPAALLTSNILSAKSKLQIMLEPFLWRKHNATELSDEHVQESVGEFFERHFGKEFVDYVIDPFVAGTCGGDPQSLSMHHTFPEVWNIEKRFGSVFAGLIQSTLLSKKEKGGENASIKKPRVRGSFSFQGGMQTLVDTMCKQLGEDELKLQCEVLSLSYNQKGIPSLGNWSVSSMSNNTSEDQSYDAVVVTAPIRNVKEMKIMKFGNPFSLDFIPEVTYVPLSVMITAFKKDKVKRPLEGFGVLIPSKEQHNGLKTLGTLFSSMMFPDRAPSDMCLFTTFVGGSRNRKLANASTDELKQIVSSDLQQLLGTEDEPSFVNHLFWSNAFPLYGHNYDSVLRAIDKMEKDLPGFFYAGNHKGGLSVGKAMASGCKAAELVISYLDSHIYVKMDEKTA

[3] = test system: Variant PPO Enzyme L397Q, F420V (Amaranthus PPO2); assay type: biochemical; details: variant L397Q, F420V vs wild type
[4] = test system: Variant PPO Enzyme R128A, F420V (Amaranthus PPO2); experiment: biochemical; assay type: biochemical; details: variant R128A, F420V vs wild type
[5] = test system: Variant PPO Enzyme L397Q, F420M (Amaranthus PPO2); assay type: biochemical; details: variant L397Q, F420M vs wild type
[6] = test system: Transgenic T2 Arabidopsis plants and ARBTH WT MC24 non-transgenic; experiment: Greenhouse post spray test, injury 14 DAT (Tables ii, iii); assay type: in vivo, Arabidopsis thaliana;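 note: value is percent injury to the sprayed plants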
[7] = test system: Variant PPO Enzyme L397Q (Amaranthus PPO2); assay type: biochemical; details: variant L397Q vs wild type
[8] = test system: Variant PPO Enzyme F420V (Amaranthus PPO2); assay type: biochemical; details: variant F420V vs wild type
[9] = test system: Variant PPO Enzyme F420M (Amaranthus PPO2); experiment: biochemical; assay type: biochemical; details: variant F420M vs wild type
[10] = test system: Transgenic T2 Arabidopsis plants harboring PPO inhibitor tolerance trait; experiment: Lab based germination assay in 48-well plates (Table i); assay type: in vivo, Arabidopsis thaliana; details: in comparison to wild type plants
[11] = test system: Variant PPO Enzyme R128A, F420M (Amaranthus PPO2); assay type: biochemical; details: variant R128A, F420M vs wild type

CCOC(=O)COc1ncccc1Oc1cc(-n2c(=O)cc(C(F)(F)F)n(C)c2=O)c(F)cc1Cl [Uracilpyridine 1, ethyl 2-[[3-[2-chloro-4-fluoro-5-[3-methyl-2,6-dioxo-4-(trifluoromethyl)pyrimiclin-1-yl]phenoxy]-2-pyridyl]oxy]acetate]
injury (0-9) [1]: 3 and 2 and 4 and 0 (No Injury) | IC50 [2]: 0.177 nM | Tolerance Factor (R/S) [3]: 12739 | Tolerance Factor (R/S) [4]: 915 and 1579 | Tolerance Factor (R/S) [5]: 2418 | injury (%) ([6]; Table ii, ALOMY_PPO2_R137L_F438V event F, 50 g ai/ha): 20% | injury (%) ([6]; Table ii, ALOMY_PPO2_R137L_F438V event F, 100 g ai/ha): 33% | injury (%) ([6]; Table ii, ALOMY_PPO2_R137L_F438V event F, 200 g ai/ha): 65% | injury (%) ([6]; Table ii, ALOMY_PPO2_R137L_F438V event G, 50 g ai/ha): 5% | injury (%) ([6]; Table ii, ALOMY_PPO2_R137L_F438V event G, 100 g ai/ha): 75% | injury (%) ([6]; Table ii, ALOMY_PPO2_R137L_F438V event G, 200 g ai/ha): 28% | injury (%) ([6]; Table ii, ALOMY_PPO2_TP_AMATU_PPO2_R128M_F420I event R, 50 g ai/ha): 60% | injury (%) ([6]; Table ii, ALOMY_PPO2_TP_AMATU_PPO2_R128M_F420I event R, 100 g ai/ha): 92% | injury (%) ([6]; Table ii, ALOMY_PPO2_TP_AMATU_PPO2_R128M_F420I event R, 200 g ai/ha): 84% | injury (%) ([6]; Table ii, AMATU_PPO2_R128A_F420M event Q, 50 g ai/ha): 55% | injury (%) ([6]; Table ii, AMATU_PPO2_R128A_F420M event Q, 100 g ai/ha): 60% | injury (%) ([6]; Table ii, AMATU_PPO2_R128A_F420M event Q, 200 g ai/ha): 75% | injury (%) ([6]; Table ii, AMATU_PPO2_R128M_F420I event K, 50 g ai/ha): 60% | injury (%) ([6]; Table ii, AMATU_PPO2_R128M_F420I event K, 100 g ai/ha): 73% | injury (%) ([6]; Table ii, AMATU_PPO2_R128M_F420I event K, 200 g ai/ha): 75% | injury (%) ([6]; Table ii, AMATU_PPO2_TP_hemG event R, 50 g ai/ha): 60% | injury (%) ([6]; Table ii, AMATU_PPO2_TP_hemG event R, 100 g ai/ha): 63% | injury (%) ([6]; Table ii, AMATU_PPO2_TP_hemG event R, 200 g ai/ha): 53% | injury (%) ([6]; Table ii, ARBTH WT MC24 non-transgenic, 50 g ai/ha + 1% MSO): 100% | injury (%) ([6]; Table ii, ARBTH WT MC24 non-transgenic, 100 g ai/ha + 1% MSO): 100% | injury (%) ([6]; Table ii, ARBTH WT MC24 non-transgenic, 200 g ai/ha + 1% MSO): 100% | injury (%) ([6]; Table iii, ALOMY_PPO2_R137L_F438M (unnamed lines), 50 g ai/ha): 0% | injury (%) ([6]; Table iii, AMATU_PPO2_L397Q_F420V (unnamed lines), 50 g ai/ha): 40% and 75% | injury (%) ([6]; Table iii, AMATU_PPO2_L397Q_F420V (unnamed lines), 100 g ai/ha): 85% and 65% | injury (%) ([6]; Table iii, AMATU_PPO2_R128A_F420I (unnamed lines), 50 g ai/ha): 60% and 70% and 75% | injury (%) ([6]; Table iii, AMATU_PPO2_R128A_F420I (unnamed lines), 100 g ai/ha): 95% and 65% and 80% and 60% | injury (%) ([6]; Table iii, AMATU_PPO2_R128A_F420L (unnamed lines), 100 g ai/ha): 60% and 90% and 95% and 80% | injury (%) ([6]; Table iii, AMATU_PPO2_R128A_F420V (unnamed lines), 50 g ai/ha): 95% and 90% and 55% and 65% | injury (%) ([6]; Table iii, AMATU_PPO2_R128A_F420V (unnamed lines), 100 g ai/ha): 80% and 95% and 98% | injury (%) ([6]; Table iii, ARBTH WT MC 24 (non-transgenic), 50 g ai/ha + 1% MSO): 100% | injury (%) ([6]; Table iii, ARBTH WT MC 24 (non-transgenic), 100 g ai/ha + 1% MSO): 100% | Tolerance Factor (R/S) [7]: 13 | Tolerance Factor (R/S) [8]: 374 | Tolerance Factor (R/S) [9]: 215 and 265 | Tolerance Factor ([10]; construct ARBTH_PPO1_S305L_Y426M (Arabidopsis thaliana)): 250 | Tolerance Factor ([10]; construct ARBTH_PPO1_WT (Arabidopsis thaliana)): 50 | Tolerance Factor (R/S) [11]: 347
